# Test system: HIV-1
# Test: Effect of protease inhibitor treatment on plasma HIV RNA levels in transgenic mice
# Type: in vivo
# Source text: (iv) Quantitation of plasma HIV RNA levels: HIV RNA in the mouse plasma was quantitated by using the Roche AMPLICOR HIV-1 MONITOR™ kits (Roche Diagnostic Systems, Branchburg, N.J.) which can measure virion associated HIV-1 RNA in plasma at concentrations as low as 400 RNA copies/ml as described (Pettoello-Mantovani, M., et al., J. Infect. Dis.1 77:337-346, 1998). After plasma was isolated from the peripheral blood of the JR-CSF TG mice, an internal HIV quantitation standard (QS), a synthetic RNA molecule with primer binding sites identical to the HIV target and an internal probe sequence specific to the QS RNA molecule, was added to 200 μl of each plasma sample. RNA was then extracted from the plasma samples with a Lysis Reagent containing guanidine thiocyanate, precipitated with isopropanol, resuspended in reaction buffer and a 142 base pair sequence in the HIV gag gene was amplified by reverse transcription and PCR using rtth pol and biotinylated primers SK431 and SK462. In order to prevent PCR product contamination, dUTP was incorporated during the PCR reaction and then all of the samples were treated with AmpErase prior to PCR to eliminate carryover of any dUTP-containing PCR product. The biotinylated HIV and QS amplicons were quantitated by detection in separate wells of a microwell plate coated with HIV-specific and QS-specific oligonucleotide probes, respectively, using avidin-horseradish peroxidase conjugate and a calorimetric reaction for horseradish peroxidase. The HIV and QS amplicons were measured in a dynamic range from 400 to 750,000 copies/ml by performing 5-fold serial dilutions of the amplicons in the HIV-specific and QS-specific wells of the microplate (rows A to F and G to H, respectively). The HIV RNA copy number was then calculated from the known input copy number of the QS RNA, the optical densities at 450 nm of the HIV-well and the QS-well that fell within a defined range, and the dilution factors associated with the selected wells.
# First, the mean plasma viral levels in the hu-CD4/CCR5/JRCSF TG mice are higher that in the JR-CSF TG mice. […]
# [1] = hu-CD4/CCR5/JRCSF TG mice, FIG. 14
compound,measurement,setting,value
"CC(C)c1nc(CN(C)C(=O)N[C@H](C(=O)N[C@@H](Cc2ccccc2)C[C@H](O)[C@H](Cc2ccccc2)NC(=O)OCc2cncs2)C(C)C)cs1 [protease inhibitor, ritonavir]",plasma viremia after treatment with a protease inhibitor,JR-CSF TG mice,did not decrease and actually went up
same,plasma HIV RNA levels after the protease inhibitor was stopped,[1],went back up
same,plasma HIV RNA levels after treatment with the protease inhibitor,[1],markedly decreased

# From US6563014B2, “Self-contained system for sustained viral replication” (Albert Einstein College of Medicine of Yeshiva University, priority 1999, dated 2003)
